The test system of assay [1] is splenic B cells, C57BL/6 congenic (IgH^a). In words: Flow cytometry: tetramer staining of splenic B cells from C57BL/6 congenic (IgH^a) mice. The following applies: C57BL/6 mice homozygous for Igh^a; Fig. 5. In kind it is cell-based, mouse (B6Igh^a). The protocol:
N-biotinylated, linker/spacer-containing peptides used to make tetramers are detailed in Table S4 and Fig. 7A. Peptides were synthesized and purified using reverse-phase HPLC (Primm Biotechnology). To produce tetramerized forms of each peptides, 200 µM peptide and 6 µM APC-labeled streptavadin (SA) were combined at equal volumes, and mixtures were incubated at 4°C for 4 h. Unbound peptide was removed from peptide-APC complexes by centrifugal filtration using an Amicon Centriprep YM30 column (Millipore Corporation). Purified tetramer preparations were determined using the Micro BSA protein assay kit (Pierce Biotechnology).
Female C57BL/6, BALB/c, B6Igh^a, and CB17 (BALBc Igh^b) inbred mouse strains (8–12 wks of age) were purchased from Charles River Laboratories. All mice were housed in the Duke University Animal Facility in a pathogen-free environment with 12 h light/dark cycles at 20–25°C under AALAC guidelines and in accordance with all Institutional Animal Care and Use Committee and Duke University Institutional Biosafety Committee-approved animal protocols. […]
(§1) FACS staining of single cell suspensions (≥2×10^6) was conducted using pre-mixed combinations of fluorochrome-labeled Abs and APC-conjugated B cell tetramers at empirically-determined optimal concentrations. […]
(In general: A flow cytometer gives signals particle by particle.)

Another assay relates to BALB/c splenic B cells. Kind of assay: Alanine-substituted gp41 MPER mutant tetramers: binding to BALB/c splenic B cells (flow cytometry). In kind it is cell-based, mouse (BALB/c). The following applies: APC mutant tetramers 100 ng/10^6 cells, MFI; average of two experiments; Fig. 7B middle.
Text: Figure 7 Mapping of gp41 MPER residues required for high frequency interactions with IgM^a. A) List of peptides (annotated numerically according to position of substitution) used to make mutant tetramers with sequential alanine substitutions (in red) along the gp41 MPER region containing the nominal 2F5 epitope. B) Comparison of gp41 MPER residues required for binding bnAb 2F5 with those required for allotypic interactions with IgM. Shown is relative binding of mutant tetramers with either 2F5 (upper panel), naïve BALB/c total splenic B cells (middle panel), and 9G8 (lower panel). Tetramers with corresponding substituted positions in the 2F5 epitope are indicated on the x-axis, with those in blue and red representing mutated residues with >3 and >10 fold binding reductions, respectively. For measuring mutant tetramer binding to 2F5, unlabeled versions of tetramers were used in SPR analysis, as described in Materials and Methods. […]
N-biotinylated, linker/spacer-containing peptides used to make tetramers are detailed in Table S4 and Fig. 7A. […] Purified tetramer preparations were determined using the Micro BSA protein assay kit (Pierce Biotechnology).
as §1

The results in this text go back to PMC2751816, “Functional, Non-Clonal IgM^a-Restricted B Cell Receptor Interactions with the HIV-1 Envelope gp41 Membrane Proximal External Region” (PLoS ONE, 2009).

In the case of “QQEKNEQELLELDKWASLWN [gp41 MPER tetramer, (residues 659–678 of the HIV-1 envelope)]”, the “gp41 MPER binding in congenic mice (in words)” value in assay [1] was “exhibited gp41 MPER binding identical to BALB/c animals”. In addition, the “gp41 MPER residues required for binding (in words)” value in the assay with BALB/c splenic B cells is “mapped to 660Q and a 677 W, both located outside the core 2F5 epitope”.
